The subject of the assay is IL-1β secretion in THP-1 cells (NLRP3). Put plainly: IL-1β secretion assay in PMA-differentiated THP-1 cells stimulated with LPS and nigericin (ELISA readout). It counts as cell-based. The note with it: IL-1β ELISA. As to the method: Compounds as provided herein were tested in the following assay. Cell culture medium employed contained RPMI 1640 medium (89%), FBS (10%), Pen/Strep (1%), and 2-mercaptoethanol (0.05 mM). Freezing medium was made up of 90% FBS and 10% DMSO. THP-1 cells were removed from the liquid nitrogen and placed into a 37° C. water bath to thaw, until signs of ice dissipated. The cells were then added to 9 mL of warm cell culture medium and centrifuged for 5 minutes at 1000 rpm. The supernatant was discarded, and the cells were resuspended in new cell culture medium. THP-1 cells were then split and cultured in the cell culture medium, being passaged every 2-3 days with the cell density will be maintained between 5×10^5 and 1.5×10^6 viable cells/mL.
To freeze, cells were resuspended with fresh freezing medium, adjusting the cell density to 5×10^6 cells/mL. The cell suspension was partitioned into 1 mL aliquots per vial, and the vials were transferred to a −80° C. freezer. After one day at −80° C., the cell vials were transferred to liquid nitrogen freezer for storage.
PMA was dissolved in DMSO to make a stock solution at 5 mg/ml and stored in 10 μl aliquots at −20° C. for single use. PMA is added to normal growth medium. LPS was diluted with 1 mL of water solution to provide a 1 mg/mL stock solution and stored in 15 μl aliquots at −20° C. for single use. Nigericin is diluted in ice cold 100% ethanol to 5 mg/ml (6.7 mM) and stored in 75 μL aliquots at −20° C. for single use. Serum-free media contains RPMI 1640 medium (99%), Pen/Strep (1%), and 2-mercaptoethanol (0.05 mM). The two control conditions used to qualify and normalize test compound dose-response curves were as follows: High Control=25 ng/mL LPS, […], 0.5% DMSO, Low Control=25 ng/mL, LPS, 0.5% DMSO.
THP-1 cells were diluted to provide a suspension at a concentration of 1.0×10^6 cells/mL with the total volume of suspension required to enable the desired number of assay plates. The growth media was supplemented with PMA (5 ng/mL final concentration) and the cells were incubated at 37° C. under a humidified atmosphere of 5% CO2 for 40 h.
All media was carefully aspirated from each culture flask. The cells were washed carefully with 1×DPBS. The cells were then briefly digested with trypsin LE for 5 minutes at 23° C. and immediately resuspended in cell growth media. After resuspension, the cells were centrifuged at 1000 rpm for 3 minutes and the supernatant was discarded. The cells were resuspended in DPBS and once again centrifuged at 1000 rpm for 5 minutes. The supernatant was discarded and the cell pellet was resuspended in serum-free media supplemented with LPS (25 ng/mL final concentration) to enable the distribution of 30K THP-1 cells within 45 μL of media into each well of 384-well PDL-coated plates. The 384-well plates were then incubated at 37° C. under a humidified atmosphere of 5% CO2 for 2 h. Following this period, test compounds were dispensed by Tecan across the desired concentration range with all wells normalized to a final 0.5% DMSO concentration. The plates were then then incubated at 37° C. under a humidified atmosphere of 5% CO2 for 1 h. Following this period, 5 μL of the 5 mg/mL nigericin stock solution was added to each of the appropriate wells and plates were centrifuged at 1000 rpm for 30 seconds. The plates were the immediately reintroduced to the incubator at 37° C. under a humidified atmosphere of 5% CO2 for 2 h. After this time, 35 μL/well of supernatant was collected and transferred into v-bottom plate and centrifuged at 1000 rpm for 1 minute. These supernatant aliquots were analyzed using an IL-Iβ detection kit as described below. If needed, the test samples could be snap frozen and stored at −80° C. until analyzed.
To prepare each ELISA plate, capture antibody (mAb Mt175) was diluted with PBS to a final concentration of […] and then 20 µL of this solution was added to each well of the ELISA plate.
Each plate was allowed to incubate overnight at 4° C. […]

Setting [1] is: Homo sapiens, THP-1, Table 3, LPS 25 ng/mL + nigericin, read-out: Activity (IC50 class).
Setting [2] is: Homo sapiens, THP-1, Table 4, LPS 25 ng/mL + nigericin, read-out: Activity (IC50).
[3] abbreviates: Table 4, LPS 25 ng/mL + nigericin, read-out: Activity (IC50).
Setting [4] is: Table 3, LPS 25 ng/mL + nigericin, read-out: Activity (IC50 class).

Like-named read-outs stand apart in the source and are kept apart here.

In general, IC50 refers to the concentration that inhibits the measured activity by half. `O=C(Cn1nc(OC2CC(F)(F)C2)c2cc(Br)ccc2c1=O)Nc1ncc(F)cn1` [Example 49, 2-[6-bromo-4-(3,3-difluorocyclobutyl)oxy-1-oxophthalazin-2-yl]-N-(5-fluoropyrimidin-2-yl)acetamide]: the IC50 was 1 to 10 µM under setting [1] and 1.51 µM under setting [2].

In the case of `C[C@@H]1CC1Oc1nn(CC(=O)N[C@H]2C[C@@](C)(O)C2)c(=O)c2ccc(Br)cc12` (single isomer, unassigned) [Example 7, 2-[6-bromo-4-[trans-2-methylcyclopropyl]oxy-1-oxophthalazin-2-yl]-N-(cis-3-hydroxy-3-methylcyclobutyl)acetamide], the IC50 was < 1 µM under setting [1] and 0.084 µM under setting [3].

As to `Cc1cnc(NC(=O)Cn2nc(OC3C[C@H]3C)c3cc(Br)ccc3c2=O)nc1` (single isomer, unassigned) [Example 10, 2-[6-bromo-4-[trans-2-methylcyclopropyl]oxy-1-oxophthalazin-2-yl]-N-(5-methylpyrimidin-2-yl)acetamide], the IC50 by setting is: under setting [4], < 1 µM; under setting [3], 0.141 µM.

Regarding `CC[C@H]1C[C@@H]1Oc1nn(CC(=O)Nc2ncc(F)cn2)c(=O)c2ccc(Br)cc12` (relative stereo) [Example 51, 2-[6-bromo-4-[trans-2-ethylcyclopropyl]oxy-1-oxophthalazin-2-yl]-N-(5-fluoropyrimidin-2-yl)acetamide], the 50% inhibitory concentration (IC50) reads like this: under setting [1], < 1 µM; under setting [2], 0.79 µM.

In the case of `O=C(Cn1nc(OC2CC3(CC3)C2)c2c(F)c(C3CC3)ccc2c1=O)Nc1ncc(F)cn1` [Example 31, 2-(6-cyclopropyl-5-fluoro-1-oxo-4-spiro[2.3]hexan-5-yloxyphthalazin-2-yl)-N-(5-fluoropyrimidin-2-yl)acetamide], the IC50 runs as follows: under setting [1], < 1 µM; under setting [2], 0.066 µM.

Regarding `C[C@]1(O)C[C@@H](NC(=O)Cn2nc(OC3CC4(C3)CC(F)(F)C4)c3cc(Br)ccc3c2=O)C1` [Example 16, 2-[6-bromo-4-(2,2-difluorospiro[3.3]heptan-6-yl)oxy-1-oxophthalazin-2-yl]-N-(cis-3-hydroxy-3-methylcyclobutyl)acetamide], the IC50 by setting is: under setting [1], < 1 µM; under setting [2], 0.137 µM.

Consider `CC[C@@H]1CC1Oc1nn(CC(=O)Nc2ncc(F)cn2)c(=O)c2ccc(Br)cc12` (single isomer, unassigned) [Example 35, 2-[6-bromo-4-[cis-2-ethylcyclopropyl]oxy-1-oxophthalazin-2-yl]-N-(5-fluoropyrimidin-2-yl)acetamide], for which the IC50 is < 1 µM under setting [1] and 0.368 µM under setting [2].

Regarding `C[C@@H]1CC1Oc1nn(CC(=O)Nc2ncc(F)cn2)c(=O)c2ccc(Br)cc12` (single isomer, unassigned) [Example 2, 2-[6-bromo-4-[2-trans-methylcyclopropyl]oxy-1-oxophthalazin-2-yl]-N-(5-fluoropyrimidin-2-yl)acetamide], the IC50 under setting [1] is < 1 µM and the IC50 under setting [3] is 0.202 µM.

Consider `Cc1cnc(NC(=O)Cn2nc(OC3CC3)c3cc(Br)ccc3c2=O)nn1` [Example 38, 2-(6-bromo-4-cyclopropyloxy-1-oxophthalazin-2-yl)-N-(6-methyl-1,2,4-triazin-3-yl)acetamide], for which the IC50 is < 1 µM under setting [1] and 0.444 µM under setting [2].

Take `O=C(Cn1nc(OC2CC3(C2)CC(F)(F)C3)c2cc(Br)ccc2c1=O)Nc1ncc(F)cn1` [Example 1, 2-[6-bromo-4-(2,2-difluorospiro[3.3]heptan-6-yl)oxy-1-oxophthalazin-2-yl]-N-(5-fluoropyrimidin-2-yl)acetamide]: the IC50 under setting [1] was < 1 µM and the IC50 under setting [2] came to 0.01 µM.

Turning to `O=C(Cn1nc(O[C@H]2C[C@@H](F)C2)c2cc(Br)ccc2c1=O)Nc1ncc(F)cn1` [Example 44, 2-[6-bromo-4-(cis-3-fluorocyclobutyl)oxy-1-oxophthalazin-2-yl]-N-(5-fluoropyrimidin-2-yl)acetamide], the IC50 was < 1 µM under setting [1] and 0.492 µM under setting [2].

Regarding `O=C(Cn1nc(OC2C[C@@H]2F)c2cc(Br)ccc2c1=O)Nc1ncc(F)cn1` (stereo partly drawn) [Example 53, 2-[6-bromo-4-[2-trans-fluorocyclopropyl]oxy-1-oxophthalazin-2-yl]-N-(5-fluoropyrimidin-2-yl)acetamide], the IC50 under setting [2] is 0.389 µM.

Regarding `O=C(Cn1nc(OC2CC3(C2)CC3(F)F)c2cc(Br)ccc2c1=O)Nc1nc2ccccn2n1` (single isomer, unassigned) [Example 26, 2-[6-bromo-4-(2,2-difluorospiro[2.3]hexan-5-yl)oxy-1-oxophthalazin-2-yl]-N-([1,2,4]triazolo[1,5-a]pyridin-2-yl)acetamide], the IC50 under setting [4] is < 1 µM and the IC50 under setting [3] was determined as 0.596 µM.

In the case of `C[C@]1(O)C[C@@H](NC(=O)Cn2nc(OC3CC4(C3)CC4(F)F)c3cc(Br)ccc3c2=O)C1` (single isomer, unassigned) [Example 20, 2-[6-bromo-4-(2,2-difluorospiro[2.3]hexan-5-yl)oxy-1-oxophthalazin-2-yl]-N-(cis-3-hydroxy-3-methylcyclobutyl)acetamide], the IC50 under setting [4] was in the range of 1 to 10 µM and the IC50 under setting [3] stood at 3.4 µM.

For the compound `COC1(C(F)(F)F)CC(Oc2nn(CC(=O)Nc3ncc(F)cn3)c(=O)c3ccc(Br)cc23)C1` (centres unmarked) [Example 43], the IC50 is, setting by setting: under setting [1], < 1 µM; under setting [2], 0.447 µM.

As to `O=C(Cn1nc(OC2CC2)c2cc(C3(F)CC3)ccc2c1=O)Nc1ncc(F)cn1` [Example 12, 2-[4-cyclopropyloxy-6-(1-fluorocyclopropyl)-1-oxophthalazin-2-yl]-N-(5-fluoropyrimidin-2-yl)acetamide], the half-maximal inhibitory concentration (IC50) by setting is: under setting [1], < 1 µM; under setting [2], 0.152 µM.

As to `COc1nn(CC(=O)Nc2ncc(F)cn2)c(=O)c2ccc(C3CC3)c(OC)c12` [Example 33, 2-(6-cyclopropyl-4,5-dimethoxy-1-oxophthalazin-2-yl)-N-(5-fluoropyrimidin-2-yl)acetamide], the IC50 reads like this: under setting [1], < 1 µM; under setting [2], 0.625 µM.

For `O=C(Cn1nc(OCCF)c2cc(Br)ccc2c1=O)Nc1ncc(F)cn1` [Example 47, 2-[6-bromo-4-(2-fluoroethoxy)-1-oxophthalazin-2-yl]-N-(5-fluoropyrimidin-2-yl)acetamide], the IC50 under setting [1] lay within 1 to 10 µM and the IC50 under setting [2] amounted to 1.4 µM.

Consider `O=C(Cn1nc(OC2CC2)c2cc(C3CCC3)ccc2c1=O)Nc1ncc(F)cn1` [Example 39, 2-(6-cyclobutyl-4-cyclopropyloxy-1-oxophthalazin-2-yl)-N-(5-fluoropyrimidin-2-yl)acetamide], for which the IC50 reads like this: under setting [1], 1 to 10 µM; under setting [2], 1.12 µM.

With `O=C(Cn1nc(OC2CC(C(F)(F)F)C2)c2cc(Br)ccc2c1=O)Nc1ncc(F)cn1` (centres unmarked) [Example 42, 2-[6-bromo-1-oxo-4-[3-(trifluoromethyl)cyclobutyl]oxyphthalazin-2-yl]-N-(5-fluoropyrimidin-2-yl)acetamide], the IC50 by setting is: under setting [1], < 1 µM; under setting [2], 0.36 µM.

For the compound `Cc1cnc(NC(=O)Cn2nc(OC3CC4(C3)CC4(F)F)c3cc(Br)ccc3c2=O)nc1` (single isomer, unassigned) [Example 21, 2-[6-bromo-4-(2,2-difluorospiro[2.3]hexan-5-yl)oxy-1-oxophthalazin-2-yl]-N-(5-methylpyrimidin-2-yl)acetamide], the IC50 under setting [1] was < 1 µM and the IC50 under setting [3] was 0.031 µM.

The values above are taken from patent US20250145592A1 (NICO Therapeutics, Inc., priority 2022, published 2025).
